Like-named read-outs stand apart in the source and are kept apart here. Non-standard residues stand in square brackets, D forms with d. Residues, ends and D or L forms follow the SMILES beside them. *: point of attachment. NMeW = CN[C@@H](Cc1c[nH]c2ccccc12)C(=O)O; NMeF = CN[C@@H](Cc1ccccc1)C(=O)O; NMeL = CN[C@@H](CC(C)C)C(=O)O; X3 = O=C(Cc1c[nH]c2ccccc12)*; Orn = NCCC[C@H](N)C(=O)O; PhAc = O=C(Cc1ccccc1)*; Sar = CNCC(=O)O
What was measured:
[1] = molecular target: T1, endothelin receptor A (ETA) (Sus scrofa, UniProt Q29010); assay: Assay of affinity for receptor (1): binding activity on ETA receptor, 125I-labeled endothelin-1, porcine heart membrane fraction; design: key: relative specific activity; reference cyclic pentapeptide ETA binding = 1.0; details: specific activity, taking the binding activity of control cyclo[-D-Glu-Ala-D-aIle-Leu-D-Trp-] on receptor A as 1.0, 25°C, 1 hour
T1 construct: A membrane fraction prepared from the porcine heart; from tissue; host or cells: porcine heart membrane fraction
T1 sequence (Q29010 21-427): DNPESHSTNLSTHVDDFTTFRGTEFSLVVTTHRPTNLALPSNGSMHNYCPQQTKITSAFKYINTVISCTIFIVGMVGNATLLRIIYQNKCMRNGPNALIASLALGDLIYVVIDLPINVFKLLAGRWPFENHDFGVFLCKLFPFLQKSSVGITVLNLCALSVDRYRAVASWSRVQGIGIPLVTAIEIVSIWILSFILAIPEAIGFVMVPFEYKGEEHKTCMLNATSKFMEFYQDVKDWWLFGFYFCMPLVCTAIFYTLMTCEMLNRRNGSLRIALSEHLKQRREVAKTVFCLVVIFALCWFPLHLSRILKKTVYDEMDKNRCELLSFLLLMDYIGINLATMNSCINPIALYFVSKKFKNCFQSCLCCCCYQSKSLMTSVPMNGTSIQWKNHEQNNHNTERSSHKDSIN
Description: Assay of Affinity for Receptor (1) ... Binding Activity on ETA Receptor
A membrane fraction prepared from the porcine heart was diluted to 0.15 mg/ml by using a buffer solution for assay, and 100 µl of the resulting suspension of the membrane fraction was poured into each assay tube to use for assay. To this suspension of the membrane fraction was added 2 µl of 5 nM ^125I-labeled endothelin-1 solution. Further, 3 µl of a test peptide solution was added thereto, followed by incubation at a temperature of 25°C for 1 hour. Then, the resulting suspension was diluted with 900 µl of the buffer solution for assay cooled with ice, and thereafter separated into a supernatant and a precipitate by centrifugation at 12,000 X g for 10 minutes. Cell membranes and an endothelin receptor A (ETA) embedded therein were contained in the precipitate, and radioactive iodine-labeled endothelin combined with the receptor was also recovered in the precipitate. Accordingly, the amount of radioactive iodine-labeled endothelin combined with the endothelin receptor A (ETA) was determined by measuring the amount of radioactive iodine contained in the precipitate with a gamma-ray counter. The cyclic pentapeptide described in Japanese Patent Application No. 2-413328/1990, cyclo[-D-Glu-Ala-D-aIle-Leu-D-Trp-], was used as a control compound. The numerical value of ETA shown in Table 1 is the value of specific activity, taking the binding activity of this cyclic pentapeptide on the receptor A as 1.0. The binding activity (IC50) of this cyclic pentapeptide on the ETA receptor is 2x10^-6 M.

ETB = ETB radio receptor assay *2, 125I-endothelin-1, guinea pig kidney crude membrane fraction; format: binding, Guinea pigs; details: relative activity, 37 °C, 90 minutes
Description: ETB Radio Receptor Assay *2
In the endothelin radio receptor assay, guinea pigs' kidneys were used. Guinea pigs (Std Hartrey, male 250 g, Japan SLC Ltd.) were made to have a cerebral concussion and sacrificed by bleeding from carotid arteries to pick up the kidneys and removed fat therefrom to prepare the kidneys. The obtained kidneys were sliced and homogenized by politron homogenizer in 20 ml of 50 mM Tris-HCl buffer [pH 7.4; 20 mM NaHCO3, 0.1 mM PMSF (Phenylmethylsulfonyl Fluoride), 1 mM EDTA (Ethylenediaminetetraacetic acid)] per one kidney. The homogenized kidney was applied to a centrifugation at 1,000 x g for 15 minutes and the supernatant was further applied to a centrifugation for 20 minutes at 30,000 x g. The resulting precipitate was twice washed with 50 mM Tris-HCl buffer (pH 7.4) containing 0.1 mM PMSF, 1 mM EDTA. The resultant was stored at -80 °C as a crude receptor membrane fraction and was used as the suspension in the following buffer when necessary.
740 Bq of ^125I-endothelin-1 (81.4 TBq/mmol, Du Pont, USA) as a radio ligand, the crude membrane fraction (2.1 µg protein) and samples were added to the following buffer. The reaction was performed at 37 °C, for 90 minutes in 0.2 ml of the buffer [50 mM Tris-HCl buffer (pH 7.4) containing 0.1 mM PMSF, 1 mM EDTA, 0.2% bovine serum albumin].
The reaction was stopped by fast filtration on a glass filter (GF/B, Wattman, USA) by Cell Harvestor (290 PHD, Cambridge-Technology, Great Britain), and the filter was three times washed with 50 mM Tris-HCl buffer (pH 7.4). Radio activity remained on the filter was assayed by a gamma counter.

[2] = amide bond, 18-membered ring, DMF, 4 steps
[3] = HONB/DCC preactivation, TEA, 5.0 mM
[4] = HONB ester (HONB/DCC preactivation)/TEA, 5.0 mM
[5] = HONB/DCC (preformed ONB ester), TEA, 5.0 mM

| Compound | Binding Activity on ET Receptor (R. act.) ETA [1] | Binding Activity on ET Receptor (R. act.) ETB*2 (ETB) | other results |
| --- | --- | --- | --- |
| CC(C)C[C@@H]1NC(=O)[C@@H](CC(C)C)NC(=O)[C@H]2CCCN2C(=O)[C@H](CC(=O)O)NC(=O)[C@@H](CC(=O)O)NC(=O)[C@@H](Cc2c[nH]c3ccccc23)NC1=O [Example 31, Cyclo[-D-Asp-Asp-D-Pro-D-Leu-Leu-D-Trp-]] (cyclo(D[dP][dL]L[dW][dD])) | 2.6 | 1.0 |  |
| CC(C)C[C@@H]1NC(=O)[C@@H](CC(C)C)NC(=O)[C@H](CC(=O)O)NC(=O)[C@H](C)NC(=O)[C@@H](CCC(=O)O)NC(=O)[C@@H](Cc2c[nH]c3ccccc23)NC1=O [Example 41, Cyclo[-D-Glu-Ala-Asp-D-Leu-Leu-D-Trp-]] (cyclo(AD[dL]L[dW][dE])) | 2.1 | 26 |  |
| CC(C)C[C@@H]1NC(=O)[C@@H](CC(C)C)NC(=O)[C@H](CC(=O)O)NC(=O)CN(C)C(=O)[C@@H](CC(=O)O)NC(=O)[C@@H](Cc2c[nH]c3ccccc23)NC1=O [Example 46, Cyclo[-D-Asp-Sar-Asp-D-Leu-Leu-D-Trp-]] (cyclo(D[dL]L[dW][dD][Sar])) | 8.1 | 75 |  |
| CC(C)C[C@@H]1NC(=O)[C@@H](CC(C)C)NC(=O)[C@H](CC(=O)O)NC(=O)[C@H](CC(C)C)N(C)C(=O)[C@@H](CC(=O)O)NC(=O)[C@@H](Cc2c[nH]c3ccccc23)NC1=O [Example 47, Cyclo[-D-Asp-N-MeLeu-Asp-D-Leu-Leu-D-Trp-]] (cyclo(D[dL]L[dW][dD][NMeL])) | 6.8 | 17 |  |
| CC(C)C[C@@H]1NC(=O)[C@@H](CC(C)C)NC(=O)[C@H](CC(=O)O)NC(=O)[C@H](Cc2ccccc2)N(C)C(=O)[C@@H](CC(=O)O)NC(=O)[C@@H](Cc2c[nH]c3ccccc23)NC1=O [Example 48, Cyclo[-D-Asp-N-MePhe-Asp-D-Leu-Leu-D-Trp-]] (cyclo(D[dL]L[dW][dD][NMeF])) | 2.7 | 13 |  |
| CC(C)C[C@@H]1NC(=O)[C@@H](CC(C)C)NC(=O)[C@H](CC(=O)O)NC(=O)[C@H](Cc2c[nH]c3ccccc23)N(C)C(=O)[C@@H](CC(=O)O)NC(=O)[C@@H](Cc2c[nH]c3ccccc23)NC1=O [Example 67, Cyclo[-D-Asp-N-MeTrp-Asp-D-Leu-Leu-D-Trp-]] (cyclo(D[dL]L[dW][dD][NMeW])) | 9.1 | 30 |  |
| CC(C)C[C@@H]1NC(=O)[C@@H](CC(C)C)NC(=O)[C@H](CC(=O)O)NC(=O)[C@H](CCCNC(=O)Cc2ccccc2)NC(=O)[C@@H](CC(=O)O)NC(=O)[C@@H](Cc2c[nH]c3ccccc23)NC1=O [Example 80, cyclo[-D-Asp-Orn(COCH2Ph)-Asp-D-Leu-Leu-D-Trp-]] (cyclo(D[dL]L[dW][dD][Orn](PhAc))) | 260 | 380 |  |
| CC(C)C[C@@H]1NC(=O)[C@@H](CC(C)C)NC(=O)[C@H](CC(=O)O)NC(=O)[C@H](CCCNC(=O)Cc2c[nH]c3ccccc23)NC(=O)[C@@H](CC(=O)O)NC(=O)[C@@H](Cc2c[nH]c3ccccc23)NC1=O [Example 82, cyclo[-D-Asp-Orn(COCH2-Ind)-Asp-D-Leu-Leu-D-Trp-]] (cyclo(D[dL]L[dW][dD][Orn](X3))) | 240 | 500 |  |
| CC(C)C[C@@H]1NC(=O)[C@@H](CC(C)C)NC(=O)[C@H](CC(=O)O)NC(=O)[C@H](Cc2c[nH]cn2)NC(=O)[C@@H](CC(=O)O)NC(=O)[C@@H](Cc2c[nH]c3ccccc23)NC1=O [Example 83, Cyclo[-D-Asp-His-Asp-D-Leu-Leu-D-Trp-]] (cyclo(D[dL]L[dW][dD]H)) | 15 | 43 |  |
| CC(C)C[C@@H]1NC(=O)[C@@H](CC(C)C)NC(=O)[C@H](CC(=O)O)NC(=O)[C@H](Cc2c[nH]c3ccccc23)NC(=O)[C@@H](CC(=O)O)NC(=O)[C@@H](Cc2cn(C)c3ccccc23)NC1=O [Example 95, Cyclo[-D-Asp-Trp-Asp-D-Leu-Leu-D-Trp(Me)-]] | 110 | 330 |  |
| H-Acbu-Leu-dTrp-dAsp(OBzl)-Trp-Asp(OBzl)-ONB |  |  | ring closure, yield after HPLC ([2]; the molecule shown is the open-chain precursor, HONB/DCC (preformed ONB ester), TEA, 5.0 mM): 10.4% |
| cyclo[-D-Asp-Ala-Asp-D-Leu-Leu-D-Trp-] |  |  | ring closure, yield after HPLC [2, 3]: 18.2% |
| cyclo[-D-Asp-Ala-D-Asp-D-Leu-Leu-D-Trp-] |  |  | ring closure, yield after HPLC [2, 3]: 15.3% |
| cyclo[-D-Asp-Ala-D-Glu-D-Leu-Leu-D-Trp-] |  |  | ring closure, yield after HPLC [2, 3]: 10.8% |
| cyclo[-D-Asp-Ala-Glu-D-Leu-Leu-D-Trp-] |  |  | ring closure, yield after HPLC [2, 3]: 24.1% |
| cyclo[-D-Asp-Asn(CH2CH2-Ind)-Asp-D-Leu-Leu-D-Trp-] |  |  | ring closure, yield after HPLC ([2]; HONB/DCC (preactivation), HCl/dioxane, TEA, 3.2 mM): 19.4% |
| cyclo[-D-Asp-Asn(CH2CH2-Ind)-Asp-D-Thg(2)-Leu-D-Trp-] |  |  | ring closure, yield after HPLC ([2]; HONB/DCC preactivation, HCl, TEA, 5.0 mM): 9.5% |
| cyclo[-D-Asp-Asn(CH2CH2Ph)-Asp-D-Leu-Leu-D-Trp-] |  |  | ring closure, yield after HPLC ([2]; HONB/DCC (preactivation), HCl/dioxane, TEA, 3.5 mM): 24.1% |
| cyclo[-D-Asp-Asn(CH2Ph)-Asp-D-Leu-Leu-D-Trp-] |  |  | ring closure, yield after HPLC ([2]; HONB ester (HONB/DCC preactivation)/TEA, 3.5 mM): 23.8% |
| cyclo[-D-Asp-Asp-Ala-D-Leu-Leu-D-Trp-] |  |  | ring closure, yield after HPLC [2, 4]: 17.8% |
| cyclo[-D-Asp-Gln(Bzl)-Asp-D-Thg(2)-Leu-D-Trp-] |  |  | ring closure, yield after HPLC ([2]; HONB/DCC preactivation, HCl, TEA, 5.1 mM): 8.8% |
| cyclo[-D-Asp-Glu-Ala-D-Leu-Leu-D-Trp-] |  |  | ring closure, yield after HPLC [2, 4]: 20.6% |
| cyclo[-D-Asp-Gly-Ala-D-Leu-Leu-D-Trp-] |  |  | ring closure, yield after HPLC ([2]; HONB ester (HONB/DCC preactivation)/TEA, 5.9 mM): 19.2% |
| cyclo[-D-Asp-Hyp(Bzl)-Asp-D-Thg(2)-Leu-D-Trp-] |  |  | ring closure, yield after HPLC [2, 5]: 5.7% |
| cyclo[-D-Asp-Orn(COCH2-Ind)-Asp-D-Leu-Leu-D-Trp-] |  |  | ring closure, yield after HPLC ([2]; HONB/DCC (preformed ONB ester), TEA, 4.9 mM): 12.5% |
| cyclo[-D-Asp-Orn(COCH2CH2Ph)-Asp-D-Leu-Leu-D-Trp-] |  |  | ring closure, yield after HPLC ([2]; HONB/DCC (preformed ONB ester), TEA, 5.1 mM): 40.9% |
| cyclo[-D-Asp-Orn(COCH2Ph)-Asp-D-Leu-Leu-D-Trp-] |  |  | ring closure, yield after HPLC ([2]; HONB/DCC (preformed ONB ester), TEA, 4.7 mM): 2.9% |
| cyclo[-D-Asp-Orn(COPh)-Asp-D-Leu-Leu-D-Trp-] |  |  | ring closure, yield after HPLC [2, 5]: 48.1% |

From EP0552417B1, “Cyclic peptides and use thereof” (priority 1991, dated 1993)
